Measurements: EP0339978B1, “Fused polycyclic compounds, compositions, methods of manufacture, and their use as PAF antagonists, antihistamines and/or antiinflammatory agents” (SCHERING CORPORATION, priority 1988, dated 1989)

What was measured:
[1] = tested on: Cellular and Fluid Influx to Rat Pleural Cavity; test: Inhibition of cellular and fluid influx to rat pleural cavity (antiinflammatory activity assay); format: in vivo; details: 25 mg 1 kg p.o., rats
Protocol: Compounds 3.0 of this invention are useful for the treatment of inflammation; thus, they are useful for the treatment of arthritus, bursitis, tendonitis, gout, and other inflammatory conditions. […] Protection against cellular and fluid influx strongly indicates antiinflammatory properties. D. Antiinflammatory Activity Assay Inhibition of Cellular and Fluid Influx to Rat Pleural Cavity. Groups of 4 male rats are injected in the penile vein with antigen (1 mg BSA in 0.2 mL of saline per rat) and 0.5 hour later injected in the pleural cavity with antibody (1.0 mg antibody protein in the IgG fraction of rabbit anti-BSA in 0.2 mL). […] After 4 hours the animals are killed with CO2, and the pleural cavities are opened and the exudate is drained into a graduated conical glass centrifuge tube containing indomethacin (1.8 ug) and nordihydroguaiaretic acid (NDGA) (15 ug) to block ex vivo metabolite synthesis. The volume of the exudate is measured. The cavity is then washed out with saline-EDTA to achieve a final volume of 5.0 mL. The number of cells is determined in a Coulter Counter. The cells are spun-down (1000 x g) and the exudate supernatant is added to 4 volumes of 95% ethanol and samples are kept on ice for 30 minutes. After removal of the protein precipitate (2,500 x g) the ethanol extract of the exudate is dried under N2 and then is stored at -20°C. […]

[2] = tested on: PAF; test: PAF antagonism in vitro assay: PAF-induced platelet aggregation in platelet-rich plasma; format: cell-based; details: PAF 1-5 X 10^-8M, human PRP
Protocol: Preparation of platelet-rich plasma (PRP): Human blood (50 ml) is collected from healthy male donors. The blood is mixed with an anticoagulant solution (5 ml) containing sodium citrate (3.8%) and dextrose (2%). Blood is centrifuged at 110 X g for 15 min. and the supernatant PRP is carefully transferred into a polypropylene tube. Platelet-poor-plasma (PPP) is prepared by centrifuging PRP at 12,000 X g for 2 min. in a Beckman Microfuge B. PRP is used within 3 hours of drawing the blood.
Platelet Aggregation Assay: When an aggregating agent such as PAF is added to PRP, platelets aggregate. An aggregometer quantifies this aggregation by measuring light (infra-red) transmission through PRP and comparing it to transmission through PPP. The aggregation assays are performed using a dual-channel aggregometer (Model 440, Chrono-Log Corp., Havertown, PA). PRP (0.45 ml) in aggregometer curettes is continually stirred (37°C). Solutions of test compounds or vehicle are added to the PRP, and, after incubation for 2 min., 10-15 µl aliquots of pAF solution are added so as to achieve a final concentration of 1-5 X 10^-8M. Incubations are continued until the increase in light transmission reaches a maximum (usually about 2 min). Values for inhibition are calculated by comparing maximal aggregation obtained in the absence and the presence of the compound. For each experiment, a standard PAF antagonist, such as alprazolam, is used as a positive internal control. The inhibitory concentration is the concentration of compound in micromoles at which the indicated % inhibition of the aggregation is found, as measured by the light transmission through each sample of PRP as compared to that through each sample of PPP.

| SMILES | reduced cellular influx to the pleural cavity [1] | reduced fluid influx to the pleural cavity [1] | Inhibition (%) ([2]; Dose 12 μm) | Inhibition (%) ([2]; Dose 25 μm) | Inhibition (%) ([2]; Dose 50 μm) |
| --- | --- | --- | --- | --- | --- |
| O=C1c2ccccc2CCc2c1[nH]c1ccccc21 [Compound E, 11,12-Dihydrobenzo[5,6]cyclohepta[1,2-b]indol-6(5H)-one] | 65% | 25% | – | – | – |
| CC(=O)N1CCC(=C2c3ccccc3CCc3sc(C)nc32)CC1 [compound 4] | – | – | 29% | 71% | 100% |
| COc1ccc(Cn2c(C)nc3c2CCc2ccccc2C3=C2CCN(C(C)=O)CC2)cc1 [compound 5] | – | – | – | – | 67% |
